The NIST ThermoML archive (doi:10.1021/acs.jced.9b00396)

Details: Liquid; for speed of sound: Frequency=3 MHz, Single path-length method; for mass density: Vibrating tube method

OCc1ccccc1 [benzenemethanol]
Details | mass density [kg/m3] | speed of sound [m/s]
293.15 K, 100 kPa | 1045.6 | 1541
298.15 K, 100 kPa | 1041.8 | 1526
298.15 K, 500 kPa | 1042 | –
298.15 K, 1000 kPa | 1042 | –
298.15 K, 2500 kPa | 1043 | –
298.15 K, 5000 kPa | 1044 | –
298.15 K, 7500 kPa | 1045 | –
298.15 K, 10000 kPa | 1046 | –
298.15 K, 12500 kPa | 1047 | –
298.15 K, 15000 kPa | 1049 | –
298.15 K, 17500 kPa | 1050 | –
298.15 K, 20000 kPa | 1051 | –
298.15 K, 22500 kPa | 1052 | –
298.15 K, 25000 kPa | 1053 | –
298.15 K, 27500 kPa | 1055 | –
298.15 K, 30000 kPa | 1056 | –
298.15 K, 32500 kPa | 1057 | –
298.15 K, 35000 kPa | 1058 | –
313.15 K, 100 kPa | 1030 | 1479
318.15 K, 500 kPa | 1026 | –
318.15 K, 1000 kPa | 1026 | –
318.15 K, 2500 kPa | 1027 | –
318.15 K, 5000 kPa | 1028 | –
318.15 K, 7500 kPa | 1030 | –
318.15 K, 10000 kPa | 1031 | –
318.15 K, 12500 kPa | 1032 | –
318.15 K, 15000 kPa | 1034 | –
318.15 K, 17500 kPa | 1035 | –
318.15 K, 20000 kPa | 1036 | –
318.15 K, 22500 kPa | 1037 | –
318.15 K, 25000 kPa | 1039 | –
318.15 K, 27500 kPa | 1040 | –
318.15 K, 30000 kPa | 1041 | –
318.15 K, 32500 kPa | 1042 | –
318.15 K, 35000 kPa | 1043 | –
333.15 K, 100 kPa | 1011.3 | 1417
338.15 K, 500 kPa | 1010 | –
338.15 K, 1000 kPa | 1010 | –
338.15 K, 2500 kPa | 1011 | –
338.15 K, 5000 kPa | 1013 | –
338.15 K, 7500 kPa | 1014 | –
338.15 K, 10000 kPa | 1016 | –
338.15 K, 12500 kPa | 1017 | –
338.15 K, 15000 kPa | 1018 | –
338.15 K, 17500 kPa | 1020 | –
338.15 K, 20000 kPa | 1021 | –
338.15 K, 22500 kPa | 1023 | –
338.15 K, 25000 kPa | 1024 | –
338.15 K, 27500 kPa | 1025 | –
338.15 K, 30000 kPa | 1026 | –
338.15 K, 32500 kPa | 1028 | –
338.15 K, 35000 kPa | 1029 | –
358.15 K, 500 kPa | 994 | –
358.15 K, 1000 kPa | 994 | –
358.15 K, 2500 kPa | 995 | –
358.15 K, 5000 kPa | 997 | –
358.15 K, 7500 kPa | 998 | –
358.15 K, 10000 kPa | 1000 | –
358.15 K, 12500 kPa | 1001 | –
358.15 K, 15000 kPa | 1003 | –
358.15 K, 17500 kPa | 1005 | –
358.15 K, 20000 kPa | 1006 | –
358.15 K, 22500 kPa | 1007 | –
358.15 K, 25000 kPa | 1009 | –
358.15 K, 27500 kPa | 1010 | –
358.15 K, 30000 kPa | 1012 | –
358.15 K, 32500 kPa | 1013 | –
358.15 K, 35000 kPa | 1014 | –
378.15 K, 500 kPa | 977 | –
378.15 K, 1000 kPa | 978 | –
378.15 K, 2500 kPa | 979 | –
378.15 K, 5000 kPa | 980 | –
378.15 K, 7500 kPa | 982 | –
378.15 K, 10000 kPa | 984 | –
378.15 K, 12500 kPa | 985 | –
378.15 K, 15000 kPa | 987 | –
378.15 K, 17500 kPa | 989 | –
378.15 K, 20000 kPa | 990 | –
378.15 K, 22500 kPa | 992 | –
378.15 K, 25000 kPa | 994 | –
378.15 K, 27500 kPa | 995 | –
378.15 K, 30000 kPa | 997 | –
378.15 K, 32500 kPa | 998 | –
378.15 K, 35000 kPa | 1000 | –
398.15 K, 500 kPa | 960 | –
398.15 K, 1000 kPa | 960 | –
398.15 K, 2500 kPa | 962 | –
398.15 K, 5000 kPa | 963 | –
398.15 K, 7500 kPa | 965 | –
398.15 K, 10000 kPa | 967 | –
398.15 K, 12500 kPa | 969 | –
398.15 K, 15000 kPa | 971 | –
398.15 K, 17500 kPa | 973 | –
398.15 K, 20000 kPa | 974 | –
398.15 K, 22500 kPa | 976 | –
398.15 K, 25000 kPa | 978 | –
398.15 K, 27500 kPa | 979 | –
398.15 K, 30000 kPa | 981 | –
398.15 K, 32500 kPa | 983 | –
398.15 K, 35000 kPa | 985 | –
418.15 K, 500 kPa | 942 | –
418.15 K, 1000 kPa | 943 | –
418.15 K, 2500 kPa | 944 | –
418.15 K, 5000 kPa | 946 | –
418.15 K, 7500 kPa | 948 | –
418.15 K, 10000 kPa | 950 | –
418.15 K, 12500 kPa | 952 | –
418.15 K, 15000 kPa | 954 | –
418.15 K, 17500 kPa | 956 | –
418.15 K, 20000 kPa | 958 | –
418.15 K, 22500 kPa | 960 | –
418.15 K, 25000 kPa | 962 | –
418.15 K, 27500 kPa | 964 | –
418.15 K, 30000 kPa | 965 | –
418.15 K, 32500 kPa | 967 | –
418.15 K, 35000 kPa | 969 | –
438.15 K, 500 kPa | 924 | –
438.15 K, 1000 kPa | 924 | –
438.15 K, 2500 kPa | 926 | –
438.15 K, 5000 kPa | 928 | –
438.15 K, 7500 kPa | 930 | –
438.15 K, 10000 kPa | 933 | –
438.15 K, 12500 kPa | 935 | –
438.15 K, 15000 kPa | 937 | –
438.15 K, 17500 kPa | 939 | –
438.15 K, 20000 kPa | 941 | –
438.15 K, 22500 kPa | 944 | –
438.15 K, 25000 kPa | 946 | –
438.15 K, 27500 kPa | 948 | –
438.15 K, 30000 kPa | 949 | –
438.15 K, 32500 kPa | 952 | –
438.15 K, 35000 kPa | 953 | –
458.15 K, 500 kPa | 904 | –
458.15 K, 1000 kPa | 905 | –
458.15 K, 2500 kPa | 907 | –
458.15 K, 5000 kPa | 909 | –
458.15 K, 7500 kPa | 912 | –
458.15 K, 10000 kPa | 915 | –
458.15 K, 12500 kPa | 917 | –
458.15 K, 15000 kPa | 920 | –
458.15 K, 17500 kPa | 922 | –
458.15 K, 20000 kPa | 924 | –
458.15 K, 22500 kPa | 927 | –
458.15 K, 25000 kPa | 929 | –
458.15 K, 27500 kPa | 931 | –
458.15 K, 30000 kPa | 933 | –
458.15 K, 32500 kPa | 935 | –
458.15 K, 35000 kPa | 937 | –
473.15 K, 500 kPa | 889 | –
473.15 K, 1000 kPa | 891 | –
473.15 K, 2500 kPa | 892 | –
473.15 K, 5000 kPa | 895 | –
473.15 K, 7500 kPa | 898 | –
473.15 K, 10000 kPa | 901 | –
473.15 K, 12500 kPa | 903 | –
473.15 K, 15000 kPa | 906 | –
473.15 K, 17500 kPa | 909 | –
473.15 K, 20000 kPa | 911 | –
473.15 K, 22500 kPa | 914 | –
473.15 K, 25000 kPa | 916 | –
473.15 K, 27500 kPa | 919 | –
473.15 K, 30000 kPa | 921 | –
473.15 K, 32500 kPa | 923 | –
473.15 K, 35000 kPa | 925 | –
